We go through four compounds from patent publication US7727956B2, “Deoxonadepsipeptides” (Aicuris GmbH & Co. KG, priority 2004, dated 2010).

Values after ≈ are worked out from the molar mass of the structure shown. Read-outs that look alike come from different tables or passages of the source. Starred links: 1 amine or outer side, 2 acyl side, 3 side chain; linkers in the order of their positions; H or OH if unused. Positions of bridges follow the written chain, without caps; N, C: chain ends. Non-standard residues stand in square brackets, D forms with d. Residues, ends and D or L forms follow the SMILES beside them. X3 = C[Si](C)(C)C[C@H](N)CN([C@@H](C[Si](C)(C)C)C(=O)[*:2])[*:1]; X4 = CC(C)(C)C[C@@H](C(=O)[*:2])N(C[C@@H](N)C[Si](C)(C)C)[*:1]; X1 = CC(C)C[C@@H](C(=O)[*:2])N(C[C@@H](N)C[Si](C)(C)C)[*:1]; Phe(3R-OH) = O=C([C@@H](N[*:1])[C@H](O[*:3])c1ccccc1)[*:2]; X2 = CC(C)(C)C[C@H](N)CN([C@@H](CC(C)(C)C)C(=O)[*:2])[*:1]; Asn(3S-OH) = NC(=O)[C@@H](O)[C@H](N)C(=O)O; Leu(3R-OH) = CC(C)[C@@H](O)[C@H](N)C(=O)O; aThr = C[C@H](O)[C@H](N)C(=O)O

Assay [1] relates to Staphylococcus aureus 133. The class given is cell-based. As for the experimental part: (§1) Determination of the Minimum Inhibitory Concentration (MIC):
(§2) The MIC is determined in the liquid dilution test in accordance with the NCCLS guidelines. Overnight cultures of Staphylococcus aureus 133, Entercococcus faecalis 27159, E. faecium 4147 and Streptococcus pneumoniae G9a are incubated with the described test substances in a 1:2 dilution series. The MIC determination is carried out with a cell count of 105 microorganisms per ml in Isosensitest medium (Difco, Irvine/USA), with the exception of S. pneumoniae, which is tested in BHI broth (Difco, Irvine/USA) with 10% bovine serum at a cell count of 106 microorganisms per ml. The cultures are incubated at 37° C. for 18-24 hours, S. pneumoniae in the presence of 10% CO2.
(§3) The lowest substance concentration in each case at which no visible bacterial growth occurs any more is defined as the MIC. The MIC values are reported in μg/ml.

Assay [2] deals with Streptococcus pneumoniae G9a. The class given is cell-based. As for the experimental part:
as §1, §2, §3

The test system of assay [3] is E. faecalis ICB 27159. The class given is cell-based, Entercococcus faecalis. As for the experimental part:
as §1, §2, §3

The mark [4] stands for this setting: Isosensitest medium, 37° C., 18-24 hours.
Setting [5] is: BHI broth with 10% bovine serum, 37° C., 18-24 hours, 10% CO2.

Regarding `CC[C@H](C)[C@@H]1NC(=O)[C@@H](CCCNC(=N)N)NC(=O)[C@H](CC(C)C)NC(=O)[C@H]([C@H](O)C(C)C)NC(=O)[C@@H](NC(=O)[C@H](CC(C)(C)C)NC[C@@H](N)C[Si](C)(C)C)[C@@H](c2ccccc2)OC(=O)[C@H](CO)NC(=O)[C@H]([C@H](O)C(N)=O)NC(=O)CNC(=O)[C@H]([C@H](C)O)NC1=O` [Example 15, N-{N-[(2R)-2-Amino-3-tri-methylsilylprop-1-yl]-(β-tBu-Ala)}-de(1-D-leucine-2-leucine) lysobactin trishydro-trifluoroacetate] (H-[X4][Phe(3R-OH)][Leu(3R-OH)]L[dR]I[aThr]G[Asn(3S-OH)]S; ester 2-C), the “MIC S. aureus 133” value in assay [1] (setting [4]) amounted to 0.5 mg/L (≈ 0.383 µM). Further, the “MIC S. pneumoniae” value in assay [2] (setting [5]) turned out to be 0.063 mg/L (≈ 0.0482 µM). Besides, the “MIC E. faecalis ICB 27159” value in assay [3] (setting [4]) worked out at 1 mg/L (≈ 0.765 µM).

On to `CC[C@H](C)[C@@H]1NC(=O)[C@@H](CCCNC(=N)N)NC(=O)[C@H](CC(C)C)NC(=O)[C@H]([C@H](O)C(C)C)NC(=O)[C@@H](NC(=O)[C@H](CC(C)C)NC[C@@H](N)C[Si](C)(C)C)[C@@H](c2ccccc2)OC(=O)[C@H](CO)NC(=O)[C@H]([C@H](O)C(N)=O)NC(=O)CNC(=O)[C@H]([C@H](C)O)NC1=O` [Example 5, N-[(2R)-2-Amino-3-trimethylsilyl-prop-1-yl]de(1-D-leucine) lysobactin trishydro-trifluoroacetate] (H-[X1][Phe(3R-OH)][Leu(3R-OH)]L[dR]I[aThr]G[Asn(3S-OH)]S; ester 2-C), for which the “MIC S. aureus 133” value in assay [1] (setting [4]) worked out at 0.5 mg/L (≈ 0.387 µM). Besides, the “MIC S. pneumoniae” value in assay [2] (setting [5]) turned out to be 0.063 mg/L (≈ 0.0487 µM). Moreover, the “MIC E. faecalis ICB 27159” value in assay [3] (setting [4]) is 1 mg/L (≈ 0.774 µM).

On to `CC[C@H](C)[C@@H]1NC(=O)[C@@H](CCCNC(=N)N)NC(=O)[C@H](CC(C)C)NC(=O)[C@H]([C@H](O)C(C)C)NC(=O)[C@@H](NC(=O)[C@H](C[Si](C)(C)C)NC[C@@H](N)C[Si](C)(C)C)[C@@H](c2ccccc2)OC(=O)[C@H](CO)NC(=O)[C@H]([C@H](O)C(N)=O)NC(=O)CNC(=O)[C@H]([C@H](C)O)NC1=O` [Example 14, N-{N-[(2R)-2-Amino-3-trimethylsilyl-prop-1-yl]-(β-trimethylsilyl)-Ala]}de(1-D-leucine-2-leucine)-lysobactin tris-hydrotrifluoro-acetate] (H-[X3][Phe(3R-OH)][Leu(3R-OH)]L[dR]I[aThr]G[Asn(3S-OH)]S; ester 2-C), for which the “MIC S. aureus 133” value in assay [1] (setting [4]) amounted to 0.25 mg/L (≈ 0.189 µM). In addition, the “MIC S. pneumoniae” value in assay [2] (setting [5]) was 0.0156 mg/L (≈ 0.0118 µM). In addition, in assay [3] (setting [4]), the “MIC E. faecalis ICB 27159” value stood at 0.125 mg/L (≈ 0.0945 µM).

Consider `CC[C@H](C)[C@@H]1NC(=O)[C@@H](CCCNC(=N)N)NC(=O)[C@H](CC(C)C)NC(=O)[C@H]([C@H](O)C(C)C)NC(=O)[C@@H](NC(=O)[C@H](CC(C)(C)C)NC[C@@H](N)CC(C)(C)C)[C@@H](c2ccccc2)OC(=O)[C@H](CO)NC(=O)[C@H]([C@H](O)C(N)=O)NC(=O)CNC(=O)[C@H]([C@H](C)O)NC1=O` [Example 8, N-{N-[(2S)-2-Amino-4,4-dimethylpent-1-yl]-β-tBu-Ala-de(1-D-leucine-2-leucine)-lysobactintris-hydrofluoro-acetate] (H-[X2][Phe(3R-OH)][Leu(3R-OH)]L[dR]I[aThr]G[Asn(3S-OH)]S; ester 2-C), for which the “MIC S. aureus 133” value in assay [1] (133) turned out to be 0.5 mg/L (≈ 0.387 µM). The “MIC S. pneumoniae” value in assay [2] (G9a) came out at 0.063 mg/L (≈ 0.0488 µM). Besides, the “MIC E. faecalis ICB 27159” value in assay [3] (ICB 27159) was found to be 1 mg/L (≈ 0.775 µM).
